From US11375716B2, “Acetyl-CoA carboxylase modulators” (Monsanto Technology LLC, priority 2013, dated 2022)
Where two headings read alike, the source gives them in different places.

How the values were obtained:
[1] = target: Ustilago maydis acetyl CoA carboxylase (ACCase) (Ustilago maydis, UniProt A0A0D1DYD5); experiment: ACCase enzymatic assay (PK/LDH-coupled, NADH OD340); format: biochemical
Description: Ustilago maydis acetyl CoA carboxylase (ACCase) was cloned, expressed, and purified as described (Weatherly et al, Biochem. J., 2004) and the test compounds were tested in a 96-well plate format. Primary in vitro screening consisted of obtaining dose response data at 100, 33, 10, and 1 μM inhibitor. Actives in the primary screen were re-tested to establish IC50 values.
Direct detection of the conversion of acetyl CoA to malonyl CoA by ACCase was not feasible, but during this process ATP is converted to ADP which allowed for detection through a standard reaction coupling with ADP recycling to the oxidation of NADH. Thus, ACCase activity was measured via kinetic OD340 measurements of the conversion of NADH to NAD in a coupled reaction involving the conversion of phosphoenolpyruvate (PEP) to lactate.
The complete 200 ul reaction mixture contained 52.5 mM HEPES (pH8), 2.625 mM MgCl2, 1 mM ATP, 0.525 mM DTT, 11 mM NaHCO3, 1% DMSO with or without inhibitor, lx pyruvate kinase/lactate dehydrogenase (PK/LDH), 0.3 mM NADH, 0.5 mM PEP, and 5 μg ACCase. The reactions were incubated at 30° C. for 10 minutes and then initiated by the addition of 0.33 mM acetyl CoA. The initiated reactions were read immediately via plate reader at OD340 and kinetic readings were acquired every 20 s for 15 minutes while keeping the temperature at 30° C.
A slope of the kinetic curve was determined by using the 2 to 7 minute data which was then calculated as percent inhibition relative to the no inhibitor control.
The primary screens were conducted in duplicate and the IC50's conducted in triplicate. Averages were reported along with standard deviation calculation to generate error bars.
Each plate contained its own controls and consisted of a DMSO only control, 5-fold titration series of soraphen from 2 μM to 3.2 nM, and an ADP coupled reaction control.
In order to effectively screen out non-specific modulators of pyruvate kinase and lactate dehydrogenase (the coupled portion of the reaction), a PK/LDH inhibition test was developed. The complete 200 μl reaction mixture contained 52.5 mM HEPES (pH8), 2.625 mM MgCl2, 0.525 mM DTT, 11 mM NaHCO3, 1% DMSO with or without inhibitor, 1× pyruvate kinase/lactate dehydrogenase (PK/LDH), 0.3 mM NADH, and 0.5 mM PEP. The reactions were incubated at 30° C. for 10 minutes and then initiated by the addition of 66 μM ADP. The initiated reactions were read immediately via plate reader at OD340 and kinetic readings were acquired every 20 s for 15 minutes while remaining at 30° C.
A slope of the kinetic curve was determined by using the 2 to 7 minute data which was then calculated as percent inhibition relative to the no inhibitor control. Those compounds which had no significant PK/LDH inhibition at or above the IC50 in the ACCase assay, were considered to be valid modulators of only ACCase.

Botrytis cinerea = experiment: Fungal growth inhibition assay, B. cinerea; format: cell-based
Text: Spores were isolated from previously sub-cultured plates of Botrytis cinerea, Phytophthora capsici, Fusarium moniliforme, Fusarium viguliforme, Collectotrichum graminicola, and Diplodia maydis. All spores were filtered and collected in a sterile glass bowl to isolate the spores from the mycelia. The isolation and sub-culture plate condition for each pathogen is described below.
Spore isolation for B. cinerea: A 2-3 week old V8 (17%)+CaCO3 (3 g/L)+20 g agar plate was removed from room temperature and the mycelia were treated with 5-10 ml of filter sterilized Triton X 100 (0.05%). The mycelia were scraped to re-suspend the spores. The spores were then collected in a sterile filter bowl containing a fluted piece of filter paper and poured into a conical tube.
After spore isolation, pathogen spores were counted on a hemocytometer to calculate the spores/ml. In 17% V8 liquid media containing 3 g/L CaCO3, isolated spores were diluted to individual concentrations based on the growth curves at 48 hours of each pathogen. […]
In a 96-well plate the spore solution, chemistries, and controls were combined to make the final solution concentrations mentioned above. Upon addition of the chemistry, an OD600 reading was done to assess chemical precipitation. […] Plate readings were repeated at 24 and 48 hrs. […]

[2] = Table 1A, read-out: ACCase Inhibitory Activity IC50
[3] = Table 1B, racemates and single enantiomers, read-out: ACCase Inhibitory Activity of Racemic Mixtures and Single Enantiomers IC50

Ustilago maydis acetyl CoA carboxylase (ACCase), sequence (A0A0D1DYD5 1-2185): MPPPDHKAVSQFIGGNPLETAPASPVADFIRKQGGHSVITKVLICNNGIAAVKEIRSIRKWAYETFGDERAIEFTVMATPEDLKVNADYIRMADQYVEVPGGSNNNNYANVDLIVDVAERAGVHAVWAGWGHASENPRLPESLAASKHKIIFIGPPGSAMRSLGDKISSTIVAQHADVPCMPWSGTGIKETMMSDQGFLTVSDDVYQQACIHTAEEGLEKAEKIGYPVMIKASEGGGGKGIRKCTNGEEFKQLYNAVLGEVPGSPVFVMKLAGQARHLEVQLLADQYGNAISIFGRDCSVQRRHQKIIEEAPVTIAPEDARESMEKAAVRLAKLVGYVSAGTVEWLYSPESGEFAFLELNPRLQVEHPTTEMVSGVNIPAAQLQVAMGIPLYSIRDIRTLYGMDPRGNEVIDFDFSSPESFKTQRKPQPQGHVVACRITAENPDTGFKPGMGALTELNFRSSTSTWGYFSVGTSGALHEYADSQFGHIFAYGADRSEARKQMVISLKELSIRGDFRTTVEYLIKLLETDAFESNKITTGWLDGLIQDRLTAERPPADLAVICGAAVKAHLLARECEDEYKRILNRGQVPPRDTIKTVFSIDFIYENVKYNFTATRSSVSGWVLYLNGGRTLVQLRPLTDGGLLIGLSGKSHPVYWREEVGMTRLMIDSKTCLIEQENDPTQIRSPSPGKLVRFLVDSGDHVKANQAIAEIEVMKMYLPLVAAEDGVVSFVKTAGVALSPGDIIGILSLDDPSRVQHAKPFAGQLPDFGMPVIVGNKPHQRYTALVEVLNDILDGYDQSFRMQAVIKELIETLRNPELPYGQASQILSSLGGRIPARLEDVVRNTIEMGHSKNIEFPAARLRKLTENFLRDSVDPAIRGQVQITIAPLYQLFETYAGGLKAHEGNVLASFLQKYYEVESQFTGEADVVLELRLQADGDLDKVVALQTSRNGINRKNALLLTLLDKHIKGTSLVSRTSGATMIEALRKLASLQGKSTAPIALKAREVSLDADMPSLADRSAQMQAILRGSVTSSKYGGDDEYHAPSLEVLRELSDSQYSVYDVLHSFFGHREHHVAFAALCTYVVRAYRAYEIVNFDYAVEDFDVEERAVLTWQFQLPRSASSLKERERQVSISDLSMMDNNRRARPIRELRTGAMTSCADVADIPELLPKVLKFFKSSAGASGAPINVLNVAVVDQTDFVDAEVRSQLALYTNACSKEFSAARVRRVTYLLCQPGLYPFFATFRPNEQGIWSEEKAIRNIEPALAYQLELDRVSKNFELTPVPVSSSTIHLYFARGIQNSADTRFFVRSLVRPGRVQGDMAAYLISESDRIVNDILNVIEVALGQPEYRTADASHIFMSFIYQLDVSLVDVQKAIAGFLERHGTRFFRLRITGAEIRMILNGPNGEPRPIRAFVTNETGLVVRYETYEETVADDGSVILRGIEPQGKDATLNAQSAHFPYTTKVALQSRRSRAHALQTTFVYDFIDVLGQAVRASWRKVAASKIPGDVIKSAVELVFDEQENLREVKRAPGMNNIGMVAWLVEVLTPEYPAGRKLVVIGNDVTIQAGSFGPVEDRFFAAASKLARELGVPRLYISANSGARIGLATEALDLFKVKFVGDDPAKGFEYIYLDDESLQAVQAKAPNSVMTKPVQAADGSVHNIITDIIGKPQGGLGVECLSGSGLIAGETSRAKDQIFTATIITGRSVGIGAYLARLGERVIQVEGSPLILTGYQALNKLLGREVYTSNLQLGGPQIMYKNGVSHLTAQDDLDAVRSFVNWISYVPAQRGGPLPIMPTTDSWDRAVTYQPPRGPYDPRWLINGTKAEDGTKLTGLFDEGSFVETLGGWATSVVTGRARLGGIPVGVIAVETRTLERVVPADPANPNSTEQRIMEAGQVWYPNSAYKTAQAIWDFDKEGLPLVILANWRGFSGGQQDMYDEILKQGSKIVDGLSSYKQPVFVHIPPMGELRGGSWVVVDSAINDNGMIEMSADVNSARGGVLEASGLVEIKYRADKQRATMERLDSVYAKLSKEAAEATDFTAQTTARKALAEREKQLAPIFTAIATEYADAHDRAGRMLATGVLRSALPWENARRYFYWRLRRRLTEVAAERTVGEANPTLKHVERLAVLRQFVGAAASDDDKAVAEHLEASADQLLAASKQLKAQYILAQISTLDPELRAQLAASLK

## 2-((3-cyano-4-(4-methoxyphenyl)-6-(1-oxidothiophen-2-yl)pyridin-2-yl)oxy)-2-phenylacetic acid [Formula Ia-xxviii]
[1]; [2]
  IC50: 196 nM
Botrytis cinerea; 2 ppm
  B. cinerea % growth inhibition at 48 hours: 14%
Botrytis cinerea; 10 ppm
  B. cinerea % growth inhibition at 48 hours: 27%

## N#Cc1c(-c2cccs2)cc(-c2cccs2)nc1SC(C(=O)O)c1ccccc1 (racemic) [Formula Ia-iii, 2-((3-cyano-4,6-di(thiophen-2-yl)pyridin-2-yl)thio)-2-phenylacetic acid]
[1]; [2]
  IC50: 616 nM
[1]; [3]
  IC50: 439 nM

## COc1ccc(-c2cc(-c3cccs3)nc(SC(C(=O)O)c3ccccc3)c2C#N)cc1 (racemic) [Formula Ia-xiv, 2-((3-cyano-4-(4-methoxyphenyl)-6-(thiophen-2-yl)pyridin-2-yl)thio)-2-phenylacetic acid]
[1]; [2]
  IC50: 60 nM

## N#Cc1c(C(F)(F)F)cc(-c2cccs2)nc1S[C@H](C(=O)O)c1ccccc1 (single isomer, unassigned) [Formula Ia-ii-e2, 2-((3-cyano-6-(thiophen-2-yl)-4-(trifluoromethyl)pyridin-2-yl)thio)-2-phenylacetic acid]
[1]; [3]
  IC50: 1210 nM
